From US20120252784A1, “2,3,4-BENZOTHIADIAZEPINE-2,2-DIOXIDE DERIVATIVES” (priority 2009, published 2012)

System: taurine
Assay: Changes in amino acid neurotransmitter levels in the cortical area of male rats (HPLC, electrochemical detection)
Format: in vivo, rat
Details: male SPDR rats, intraperitoneal, 0.4% aqueous methylcellulose suspension, decapitated 30 minutes after administration, compared to vehicle control group
Experimental: The in vivo biological effectiveness of the compounds of the present invention on the central nervous system was examined by the following experimental model.
Changes in Amino Acid Neurotransmitter Levels in the Cortical Area of Male Rats
Male SPDR rats weighing 200-250 g, were used in the experiments. Changes in the concentration of amino acid neurotransmitters were measured from cortical areas by high-performance liquid chromatography (HPLC) and electrochemical detection.
The investigations were carried out with two experimental groups wherein each group contained 8 animals. One group was administered intraperitoneally by vehicle only (control group). The other group was administered intraperitoneally by the compound of the Example 15, suspended in vehicle. The dose of administration was in the form of 0.4% aqueous methylcellulose suspension.
The animals were decapitated 30 minutes after the administration, brains have been removed and required brain regions were dissected. The tissues were stored at −70° C.
The tissues were homogenized in ice-cold 0.1 M perchlorate in 500 volume excess. […]
The tissue concentrations of the amino acids were measured by standard solutions containing amino acids with known concentration.

For `CN1N=C(c2ccc(F)cc2)c2cc(Cl)ccc2CS1(=O)=O` [Example 16, 7-Chloro-5-(4-fluoro-phenyl)-3-methyl-1,3-dihydro-2̂,4-benzothiadiazepin-2,2-dioxide], which “concentrations of the amino acid taurine in the frontal cortex” value is on record?
Its value is “significantly increased”.
